The values below are quoted from earlier work in EP0975321B1, “THE USE OF THIOGLYCOLIC ACID AS DEPIGMENTING AGENT” (I.V. Pharma S.A.S., priority 1997, dated 1998).

For this data set the following is noted: Acidic strength; Table 1.

For the compound `O=C(O)CS` [Tioglycolic acid, 2-mercaptoacetic acid], the pKa value was 3.68.

For the compound `O=C(O)C(Cl)(Cl)Cl` [Trichloroacetic acid], the pKa value is listed as 0.70.
